Results taken from patent US20240270762A1, “PENICILLIN-BINDING PROTEIN INHIBITORS” (priority 2021, published 2024).
Values after ≈ are worked out from the molar mass of the structure shown. Like-named read-outs stand apart in the source and are kept apart here.

Tests used:
[1] = system: A. baumannii 1258916; test: microbe, parasite or virus in culture; type: cell-based, Acinetobacter baumannii; details: Acinetobacter baumannii, 1258916, read-out: MIC, A. baumannii 1258916
[2] = target: T1, PBP3 from Acinetobacter baumannii (ATCC 19606) (Acinetobacter baumannii, UniProt A0ABX6CK25); test: Bocillin-FL fluorescence polarization competition binding, A. baumannii PBP3; details: fluorescence polarization competition binding assay using Bocillin-FL; read-out: A. baumannii PBP3 Potency
T1 sequence (A0ABX6CK25 64-610): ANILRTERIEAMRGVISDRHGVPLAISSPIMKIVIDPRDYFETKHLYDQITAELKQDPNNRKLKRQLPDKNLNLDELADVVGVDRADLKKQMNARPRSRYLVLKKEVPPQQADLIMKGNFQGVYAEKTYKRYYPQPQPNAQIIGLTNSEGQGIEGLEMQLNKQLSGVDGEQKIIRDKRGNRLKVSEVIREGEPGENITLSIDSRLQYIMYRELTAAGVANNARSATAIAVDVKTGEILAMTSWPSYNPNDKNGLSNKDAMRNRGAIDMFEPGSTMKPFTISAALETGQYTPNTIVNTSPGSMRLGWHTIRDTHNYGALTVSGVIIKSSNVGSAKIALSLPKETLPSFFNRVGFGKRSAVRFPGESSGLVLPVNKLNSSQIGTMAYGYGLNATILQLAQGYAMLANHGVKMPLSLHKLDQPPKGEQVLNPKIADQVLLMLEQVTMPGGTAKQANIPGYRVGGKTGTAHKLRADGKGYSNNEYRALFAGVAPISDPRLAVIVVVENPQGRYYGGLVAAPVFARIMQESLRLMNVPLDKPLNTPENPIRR
Summary of the method: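 Purified PBP was preincubated with inhibitor (E. coli PBP3 1.5 μM, 30 min; P. aeruginosa PBP3 0.75 μM, A. baumannii PBP3 0.2 μM and PBP1a 1 μM, 15 min), then Bocillin-FL (0.1 μM; 0.05 μM for PBP1a) added and FP read up to 60 min. EC50 = 50% loss of bound probe.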

[3] = system: N. gonorrhoeae WHO Q; test: Liquid broth MIC in Fastidious broth; details: Neisseria gonorrhoeae
[4] = system: A. baumannii CDC-0036; test: microbe, parasite or virus in culture; type: cell-based; details: Acinetobacter baumannii, CDC0036, read-out: MIC, A. baumannii CDC-0036
[5] = system: N. gonorrhoeae WHO X; test: Liquid broth MIC in Fastidious broth; details: Neisseria gonorrhoeae
[6] = system: N. gonorrhoeae WHO M; test: Liquid broth MIC in Fastidious broth; details: Neisseria gonorrhoeae
[7] = system: P. aeruginosa CDC-0095; test: microbe, parasite or virus in culture; type: cell-based; details: Pseudomonas aeruginosa, CDC0095, read-out: Minimum inhibitory concentration, P. aeruginosa CDC-0095
[8] = system: N. gonorrhoeae WHO G; test: Liquid broth MIC in Fastidious broth; details: Neisseria gonorrhoeae
[9] = system: N. gonorrhoeae WHO Z; test: Liquid broth MIC in Fastidious broth; details: Neisseria gonorrhoeae
[10] = system: N. gonorrhoeae WHO K; test: Liquid broth MIC in Fastidious broth; details: Neisseria gonorrhoeae
[11] = system: N. gonorrhoeae FA1090; test: Liquid broth MIC in Fastidious broth; details: Neisseria gonorrhoeae
Experimental: Additional antibacterial testing of the series was performed in 8 reference strains of N. gonorrhoeae (ATCC 49226, FA1090, MS 11, WHO G, WHO L, WHO M, WHO K, WHO X, WHO Z, WHO Q, CDC-0197). ATCC 49226, FA1090, MS11, WHO G, WHO L, and WHO M produce wild type or wild-type like PBP2. WHO K, WHO X, WHO Z, WHO Q, and CDC-0197 produce mosaic PBP2. Liquid broth-based assays were used for antibacterial testing of PBP inhibitors in Neisseria gonorrhoeae. Briefly, cryo-preserved bacterial cultures of clinical strains were streaked for isolation on Chocolate Agar (72 g/L (2×) GC Agar Base (BD #228950) and 2% (2×) Hemoglobin was autoclaved at 121° C. for 20 minutes to sterilize. Once cooled to ˜50° C. the 2×GC Agar Base and 2× Hemoglobin solutions are combined and 1% IsoVitaleX Enrichment (BD #211876) was added to the solution). Strains were incubated at 36° C. and 5% CO2 to allow growth of colonies, 24 hours before inoculum preparation. 2-fold serial dilutions of test compounds were conducted in a 96 well plate with a final volume of 75 μL per well at 2-fold the final desired concentration in Fastidious broth (Remel #R07664). For preparation of assay inoculum, a direct suspension was prepared by aseptically swabbing 10-15 colonies from agar plates into culture tubes containing 2 mL of fresh sterile saline. After the dilution plates were set up, direct suspensions were then diluted in a cuvette containing sterile saline and the optical density was measured at 600 nm. Inocula were diluted such that 75 μL of this culture in Fastidious broth results in a starting bacterial concentration of 5×10^5 CFU/mL when added to the dilution plates. The plates were incubated for ˜24 hours at 36° C. and 5% CO2.

[12] = read-out: Minimum Inhibitory Concentration (MIC), N. gonorrhoeae WHO Q
[13] = read-out: Minimum Inhibitory Concentration (MIC), N. gonorrhoeae WHO X
[14] = read-out: Minimum Inhibitory Concentration (MIC), N. gonorrhoeae WHO M
[15] = read-out: Minimum Inhibitory Concentration (MIC), N. gonorrhoeae WHO G
[16] = read-out: Minimum Inhibitory Concentration (MIC), N. gonorrhoeae WHO Z
[17] = read-out: Minimum Inhibitory Concentration (MIC), N. gonorrhoeae WHO K
[18] = FA1090, read-out: Minimum Inhibitory Concentration (MIC), N. gonorrhoeae FA 1090
[19] = read-out: Minimum Inhibitory Concentration, WHO Q
[20] = read-out: Minimum Inhibitory Concentration, WHO X
[21] = read-out: Minimum Inhibitory Concentration, WHO M
[22] = read-out: Minimum Inhibitory Concentration, WHO G
[23] = read-out: Minimum Inhibitory Concentration, WHO Z
[24] = read-out: Minimum Inhibitory Concentration, WHO K
[25] = FA1090, read-out: Minimum Inhibitory Concentration, FA 1090

O=C(CN1CCN(C(=O)NC(C(=O)N[C@H]2Cc3ccc(F)c(C(=O)O)c3OB2O)c2cc(F)c(O)c(O)c2Cl)C(=O)C1=O)Nc1ccc(O)cc1 (stereo partly drawn) [Example 230, (3R)-3-(2-(2-chloro-5-fluoro-3,4-dihydroxyphenyl)-2-(4-(2-((4-hydroxyphenyl)amino)-2-oxoethyl)-2,3-dioxopiperazine-1-carboxamido)acetamido)-7-fluoro-2-hydroxy-3,4-dihydro-2H-benzo[e][1,2]oxaborinine-8-carboxylic acid]
MIC [1]: 2 to 4 µg/mL (≈ 2.73 to 5.47 µM) | IC50 [2]: < 10 µM | MIC [3, 12]: 16 to 32 µg/mL (≈ 21.9 to 43.7 µM) | MIC [4]: 2 to 4 µg/mL (≈ 2.73 to 5.47 µM) | MIC [5, 13]: > 64 µg/mL | MIC [6, 14]: 4 to 8 µg/mL (≈ 5.47 to 10.9 µM) | MIC [7]: < 1 µg/mL | MIC [8, 15]: 4 to 8 µg/mL (≈ 5.47 to 10.9 µM) | MIC [9, 16]: 4 to 8 µg/mL (≈ 5.47 to 10.9 µM) | MIC [10, 17]: 16 to 32 µg/mL (≈ 21.9 to 43.7 µM) | MIC [11, 18]: 1 to 2 µg/mL (≈ 1.37 to 2.73 µM)

O=C(NCCCS(=O)(=O)N1CCN(C(=O)NC(C(=O)N[C@H]2Cc3ccc(F)c(C(=O)O)c3OB2O)c2cc(F)c(O)c(O)c2Cl)C1=O)c1nccs1 (stereo partly drawn) [Example 274, (3R)-3-(2-(2-chloro-5-fluoro-3,4-dihydroxyphenyl)-2-(2-oxo-3-((3-(thiazole-2-carboxamido)propyl)sulfonyl)imidazolidine-1-carboxamido)acetamido)-7-fluoro-2-hydroxy-3,4-dihydro-2H-benzo[e][1,2]oxaborinine-8-carboxylic acid]
MIC [1]: < 1 µg/mL | IC50 [2]: < 10 µM | MIC [3, 19]: 16 to 32 µg/mL (≈ 20.3 to 40.7 µM) | MIC [4]: 2 to 4 µg/mL (≈ 2.54 to 5.08 µM) | MIC [5, 20]: > 64 µg/mL | MIC [6, 21]: 16 to 32 µg/mL (≈ 20.3 to 40.7 µM) | MIC [7]: > 128 µg/mL | MIC [8, 22]: 16 to 32 µg/mL (≈ 20.3 to 40.7 µM) | MIC [9, 23]: 16 to 32 µg/mL (≈ 20.3 to 40.7 µM) | MIC [10, 24]: > 64 µg/mL | MIC [11, 25]: 4 to 8 µg/mL (≈ 5.08 to 10.2 µM)

O=C(NCCN1CCN(C(=O)NC(C(=O)N[C@H]2Cc3ccc(F)c(C(=O)O)c3OB2O)c2cc(F)c(O)c(O)c2Cl)C1=O)c1nccs1 (stereo partly drawn) [Example 247, (3R)-3-(2-(2-chloro-5-fluoro-3,4-dihydroxyphenyl)-2-(2-oxo-3-(2-(thiazole-2-carboxamido)ethyl)imidazolidine-1-carboxamido)acetamido)-7-fluoro-2-hydroxy-3,4-dihydro-2H-benzo[e][1,2]oxaborinine-8-carboxylic acid]
MIC [1]: < 1 µg/mL | IC50 [2]: < 10 µM | MIC [3, 19]: 16 to 32 µg/mL (≈ 22.6 to 45.1 µM) | MIC [4]: < 1 µg/mL | MIC [5, 20]: > 64 µg/mL | MIC [6, 21]: 16 to 32 µg/mL (≈ 22.6 to 45.1 µM) | MIC [7]: 2 to 4 µg/mL (≈ 2.82 to 5.64 µM) | MIC [8, 22]: 16 to 32 µg/mL (≈ 22.6 to 45.1 µM) | MIC [9, 23]: 16 to 32 µg/mL (≈ 22.6 to 45.1 µM) | MIC [10, 24]: > 64 µg/mL | MIC [11, 25]: 4 to 8 µg/mL (≈ 5.64 to 11.3 µM)

O=C(O)c1c(F)ccc2c1OB(O)[C@@H](NC(=O)C(NC(=O)N1CCN(CCCNC(=O)[C@@H]3CCCN3)C(=O)C1=O)c1cc(F)c(O)c(O)c1Cl)C2 (stereo partly drawn) [Example 212, (3R)-3-(2-(2-chloro-5-fluoro-3,4-dihydroxyphenyl)-2-(2,3-dioxo-4-(3-((S)-pyrrolidine-2-carboxamido)propyl)piperazine-1-carboxamido)acetamido)-7-fluoro-2-hydroxy-3,4-dihydro-2H-benzo[e][1,2]oxaborinine-8-carboxylic acid]
MIC [1]: 2 to 4 µg/mL (≈ 2.71 to 5.43 µM) | IC50 [2]: < 10 µM | MIC [3, 12]: > 64 µg/mL | MIC [4]: 8 to 16 µg/mL (≈ 10.9 to 21.7 µM) | MIC [5, 13]: > 64 µg/mL | MIC [6, 14]: 16 to 32 µg/mL (≈ 21.7 to 43.4 µM) | MIC [7]: 2 to 4 µg/mL (≈ 2.71 to 5.43 µM) | MIC [8, 15]: 16 to 32 µg/mL (≈ 21.7 to 43.4 µM) | MIC [9, 16]: > 64 µg/mL | MIC [10, 17]: > 64 µg/mL | MIC [11, 18]: 4 to 8 µg/mL (≈ 5.43 to 10.9 µM)

CN(CCN1CCN(C(=O)N[C@@H](C(=O)N[C@H]2Cc3ccc(F)c(C(=O)O)c3OB2O)c2cc(F)c(O)c(O)c2Cl)C(=O)C1=O)Cc1ccc(C(N)=O)cc1 [Example 226, (R)-3-((R)-2-(4-(2-((4-carbamoylbenzyl)(methyl)amino)ethyl)-2,3-dioxopiperazine-1-carboxamido)-2-(2-chloro-5-fluoro-3,4-dihydroxyphenyl)acetamido)-7-fluoro-2-hydroxy-3,4-dihydro-2H-benzo[e][1,2]oxaborinine-8-carboxylic acid]
MIC [1]: < 1 µg/mL | IC50 [2]: < 10 µM | MIC [3, 12]: > 64 µg/mL | MIC [4]: 2 to 4 µg/mL (≈ 2.59 to 5.18 µM) | MIC [5, 13]: > 64 µg/mL | MIC [6, 14]: 16 to 32 µg/mL (≈ 20.7 to 41.4 µM) | MIC [7]: 2 to 4 µg/mL (≈ 2.59 to 5.18 µM) | MIC [8, 15]: 16 to 32 µg/mL (≈ 20.7 to 41.4 µM) | MIC [9, 16]: 16 to 32 µg/mL (≈ 20.7 to 41.4 µM) | MIC [10, 17]: > 64 µg/mL | MIC [11, 18]: 1 to 2 µg/mL (≈ 1.29 to 2.59 µM)
